By Ki is commonly meant a dissociation constant, usually derived from enzyme kinetics or from competition with a known ligand. A lower Ki goes with a stronger hold on the target.

Each structure is given as a SMILES string.

One assay has as its target T1, h-GABAA α1β3γ2 (Homo sapiens, UniProt P14867+P18507).
T1 construct: expressed in transfected cells; host or cells: HEK293F cells, membranes
Kind of assay: Radioligand binding assay, [3H]Flumazenil competition, HEK293F membranes. To be noted: for γ2/γ1 Selectivity Ratio: Ki α1β3γ2 (nM)/Ki α2β2γ1 (nM); for LogSel: Log[Ki α1β3γ2 (nM)/Ki α2β2γ1 (nM)]. Put shortly:
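[3H]Flumazenil competition binding on membranes from HEK293F cells transiently expressing human α1β3γ2 receptors. Incubation to equilibrium for 1 h at 4 °C, then filtration and scintillation counting. Ki is the mean of two determinations.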

The target in a further assay is T2, h-GABAA α1β2γ1 (Homo sapiens, UniProt P14867+Q8N1C3).
T2 construct: expressed in transfected cells; host or cells: HEK293F cells (ThermoFisher R79007), membranes
T2 sequence (P14867 28-456): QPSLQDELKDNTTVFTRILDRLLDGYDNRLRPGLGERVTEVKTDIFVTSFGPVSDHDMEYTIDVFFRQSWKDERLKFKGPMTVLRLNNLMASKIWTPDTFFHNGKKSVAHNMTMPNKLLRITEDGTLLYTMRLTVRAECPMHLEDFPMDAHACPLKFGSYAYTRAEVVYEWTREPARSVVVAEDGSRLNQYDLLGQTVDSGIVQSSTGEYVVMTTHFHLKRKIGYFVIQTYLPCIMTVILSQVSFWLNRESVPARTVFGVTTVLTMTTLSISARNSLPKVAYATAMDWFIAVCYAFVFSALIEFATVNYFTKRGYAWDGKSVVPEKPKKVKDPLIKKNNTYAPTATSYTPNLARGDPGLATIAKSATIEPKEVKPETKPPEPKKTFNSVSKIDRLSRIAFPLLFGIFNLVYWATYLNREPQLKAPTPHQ
T2 sequence (P47870 25-512 partner limits assumed): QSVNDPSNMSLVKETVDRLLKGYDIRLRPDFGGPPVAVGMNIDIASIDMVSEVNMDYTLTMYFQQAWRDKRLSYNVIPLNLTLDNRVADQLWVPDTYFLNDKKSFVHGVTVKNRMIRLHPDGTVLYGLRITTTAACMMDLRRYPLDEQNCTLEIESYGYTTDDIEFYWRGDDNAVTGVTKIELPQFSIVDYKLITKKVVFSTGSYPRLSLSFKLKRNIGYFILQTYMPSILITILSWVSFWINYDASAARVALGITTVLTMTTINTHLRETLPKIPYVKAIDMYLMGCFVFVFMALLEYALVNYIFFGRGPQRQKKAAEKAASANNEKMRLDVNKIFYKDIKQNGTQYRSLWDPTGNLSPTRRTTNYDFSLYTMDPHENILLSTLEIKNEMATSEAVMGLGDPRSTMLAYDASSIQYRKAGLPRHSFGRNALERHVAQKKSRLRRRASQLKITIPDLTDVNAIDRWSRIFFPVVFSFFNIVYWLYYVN
T2 sequence (Q8N1C3 36-465): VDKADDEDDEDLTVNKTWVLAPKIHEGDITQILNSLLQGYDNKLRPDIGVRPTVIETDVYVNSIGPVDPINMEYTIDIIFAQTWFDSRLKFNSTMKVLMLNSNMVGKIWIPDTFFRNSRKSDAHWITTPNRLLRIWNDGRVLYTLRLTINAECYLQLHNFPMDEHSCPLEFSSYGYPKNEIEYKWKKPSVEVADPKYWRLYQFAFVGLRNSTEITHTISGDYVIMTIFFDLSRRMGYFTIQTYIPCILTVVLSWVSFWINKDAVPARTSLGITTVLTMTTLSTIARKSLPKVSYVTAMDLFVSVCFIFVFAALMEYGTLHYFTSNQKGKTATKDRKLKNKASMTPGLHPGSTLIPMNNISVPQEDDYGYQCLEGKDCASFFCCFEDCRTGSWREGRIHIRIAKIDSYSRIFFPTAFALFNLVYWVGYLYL
Briefly: Radioligand binding assay, [3H]RO7239181 competition, HEK293F membranes.

Consider `Cc1nnc2n1-c1ccc(Br)c(Cl)c1C(c1ncccc1F)=NC2` [Example 24, 8-bromo-7-chloro-6-(3-fluoro-2-pyridyl)-1-methyl-4H-[1,2,4]triazolo[4,3-a][1,4]benzodiazepine], for which the Ki on h-GABAA α1β3γ2 worked out at 608 nM; on h-GABAA α1β2γ1, 43.6 nM. The “γ2/γ1 Selectivity Ratio” value at h-GABAA α1β3γ2 (Table 1) came to 25.0. The LogSel at h-GABAA α1β3γ2 (Table 1) was determined as 1.40.

At h-GABAA α1β3γ2, `Cc1nnc2n1-c1ccc(C(F)F)c(Cl)c1C(c1c(F)cccc1F)=NC2` [Example 25, 7-chloro-8-(difluoromethyl)-6-(2,6-difluorophenyl)-1-methyl-4H-[1,2,4]triazolo[4,3-a][1,4]benzodiazepine] came in with a Ki of 1190 nM. Also, on h-GABAA α1β3γ2 (Table 1), the “γ2/γ1 Selectivity Ratio” value worked out at 24.2 and the LogSel came out at 1.38. The compound also returned a Ki on h-GABAA α1β2γ1 of 68.6 nM.

With `O=c1[nH]nc2n1-c1ccc(Br)c(Cl)c1C(c1ccccc1F)=NC2` [Example 26, 8-bromo-7-chloro-6-(2-fluorophenyl)-2,4-dihydro-[1,2,4]triazolo[4,3-a][1,4]benzodiazepin-1-one], the figures for the Ki on h-GABAA α1β3γ2 and at h-GABAA α1β2γ1 were 698 nM and 24.1 nM, respectively. Besides, the “γ2/γ1 Selectivity Ratio” value on h-GABAA α1β3γ2 (Table 1) stood at 22.1. The LogSel at h-GABAA α1β3γ2 (Table 1) amounted to 1.34.

Consider `Fc1ccccc1C1=NCc2nnc(-c3cccnn3)n2-c2ccc(C(F)(F)F)c(Cl)c21` [Example 27, 7-chloro-6-(2-fluorophenyl)-1-pyridazin-3-yl-8-(trifluoromethyl)-4H-[1,2,4]triazolo[4,3-a][1,4]benzodiazepine], for which, at h-GABAA α1β3γ2, the Ki was found to be 4800 nM. Moreover, at h-GABAA α1β3γ2 (Table 1), the “γ2/γ1 Selectivity Ratio” value stood at 56.7 and the LogSel is listed as 1.75. For the same compound, at h-GABAA α1β2γ1, the Ki was found to be 288 nM.

Consider `Cn1cc(-c2nnc3n2-c2ccc(Cl)c(Cl)c2C(c2c(F)cccc2F)=NC3)cn1` [Example 28, 7,8-dichloro-6-(2,6-difluorophenyl)-1-(1-methylpyrazol-4-yl)-4H-[1,2,4]triazolo[4,3-a][1,4]benzodiazepine], for which, at h-GABAA α1β3γ2, the affinity corresponds to a Ki of 293 nM. For the same compound, at h-GABAA α1β3γ2 (Table 1), the “γ2/γ1 Selectivity Ratio” value turned out to be 31.1 and the LogSel was found to be 1.49. The same compound showed a Ki at h-GABAA α1β2γ1 of 12.6 nM.

With `Fc1cccnc1C1=NCc2nncn2-c2ccc(Br)c(Cl)c21` [Example 29, 8-bromo-7-chloro-6-(3-fluoro-2-pyridyl)-4H-[1,2,4]triazolo[4,3-a][1,4]benzodiazepine], the inhibition constant Ki at h-GABAA α1β3γ2 stood at 789 nM; at h-GABAA α1β2γ1, 66.2 nM. The “γ2/γ1 Selectivity Ratio” value on h-GABAA α1β3γ2 (Table 1) is on record as 16.6. At h-GABAA α1β3γ2 (Table 1), this compound came in with a LogSel of 1.22.

`Fc1cccc(F)c1C1=NCc2nncn2-c2ccc(I)c(Cl)c21` [Example 34, 7-chloro-6-(2,6-difluorophenyl)-8-iodo-4H-[1,2,4]triazolo[4,3-a][1,4]benzodiazepine] yielded an inhibitory constant (Ki) on h-GABAA α1β3γ2 of 161 nM. Also, at h-GABAA α1β3γ2 (Table 1), the “γ2/γ1 Selectivity Ratio” value came to 15.9 and the LogSel is 1.20. Moreover, the Ki on h-GABAA α1β2γ1 was determined as 5.6 nM.

`Cl.NCc1nnc2n1-c1ccc(Br)c(Cl)c1C(c1c(F)cccc1F)=NC2` [Example 36, [8-bromo-7-chloro-6-(2,6-difluorophenyl)-4H-[1,2,4]triazolo[4,3-a][1,4]benzodiazepin-1-yl]methanamine hydrochloride]: on h-GABAA α1β3γ2, the inhibition constant (Ki) was 180 nM. In addition, on h-GABAA α1β3γ2 (Table 1), the “γ2/γ1 Selectivity Ratio” value was 21.2 and the LogSel was determined as 1.33. On h-GABAA α1β2γ1, this compound registered a Ki of 11.9 nM.

`Fc1cccc(F)c1C1=NCc2nnc(-c3cccnn3)n2-c2ccc(C(F)(F)F)c(Cl)c21` [Example 38, 7-chloro-6-(2,6-difluorophenyl)-1-pyridazin-3-yl-8-(trifluoromethyl)-4H-[1,2,4]triazolo[4,3-a][1,4]benzodiazepine]: the Ki at h-GABAA α1β3γ2 stood at 1430 nM; on h-GABAA α1β2γ1, 28 nM. Besides, the “γ2/γ1 Selectivity Ratio” value at h-GABAA α1β3γ2 (Table 1) was 113.4. The same compound had a LogSel at h-GABAA α1β3γ2 (Table 1) of 2.05.

Turning to `Fc1cccc(F)c1C1=NCc2nnc(-c3cccnn3)n2-c2ccc(I)c(Cl)c21` [Example 39, 7-chloro-6-(2,6-difluorophenyl)-8-iodo-1-pyridazin-3-yl-4H-[1,2,4]triazolo[4,3-a][1,4]benzodiazepine], on h-GABAA α1β3γ2, the affinity, expressed as Ki, was 360 nM. Moreover, on h-GABAA α1β3γ2 (Table 1), the “γ2/γ1 Selectivity Ratio” value was 85.8 and the LogSel turned out to be 1.93. This compound returned a Ki on h-GABAA α1β2γ1 of 4.7 nM.

Consider `Cc1nnc2n1-c1ccc(C(F)(F)F)c(Cl)c1C(c1c(F)cccc1F)=NC2` [Example 40, 7-chloro-6-(2,6-difluorophenyl)-1-methyl-8-(trifluoromethyl)-4H-[1,2,4]triazolo[4,3-a][1,4]benzodiazepine], for which the Ki stood at 1010 nM at h-GABAA α1β3γ2 and 20.8 nM at h-GABAA α1β2γ1. Further, the “γ2/γ1 Selectivity Ratio” value on h-GABAA α1β3γ2 (Table 1) and at h-GABAA α1β3γ2 (Table 3) was 37.5 in each case. The LogSel is reported as 1.57 on h-GABAA α1β3γ2 (Table 1) and 1.6 on h-GABAA α1β3γ2 (Table 3).

Turning to `Cc1nnc2n1-c1ccc(I)c(Cl)c1C(c1c(F)cccc1F)=NC2` [Example 41, 7-chloro-6-(2,6-difluorophenyl)-8-iodo-1-methyl-4H-[1,2,4]triazolo[4,3-a][1,4]benzodiazepine], the inhibition constant Ki at h-GABAA α1β3γ2 was 121 nM; at h-GABAA α1β2γ1, 4.8 nM. At h-GABAA α1β3γ2 (Table 1), the “γ2/γ1 Selectivity Ratio” value was 21.9. Besides, on h-GABAA α1β3γ2 (Table 1), the LogSel was 1.34.

In the case of `Fc1cccc(F)c1C1=NCc2nnc(-c3cccnn3)n2-c2ccc(Br)c(Br)c21` [Example 42, 7,8-dibromo-6-(2,6-difluorophenyl)-1-pyridazin-3-yl-4H-[1,2,4]triazolo[4,3-a][1,4]benzodiazepine], the inhibitory constant (Ki) at h-GABAA α1β3γ2 came out at 243 nM. Further, on h-GABAA α1β3γ2 (Table 1), the “γ2/γ1 Selectivity Ratio” value was found to be 44.2 and the LogSel was 1.65. At h-GABAA α1β2γ1, this compound returned an inhibitory constant (Ki) of 7.2 nM.

The compound `Fc1cccc(F)c1C1=NCc2nnc(-c3ccncn3)n2-c2ccc(Br)c(Br)c21` [Example 43, 7,8-dibromo-6-(2,6-difluorophenyl)-1-pyrimidin-4-yl-4H-[1,2,4]triazolo[4,3-a][1,4]benzodiazepine] came in with an inhibitory constant (Ki) on h-GABAA α1β3γ2 of 510 nM. On h-GABAA α1β3γ2 (Table 1), the “γ2/γ1 Selectivity Ratio” value was 88.5 and the LogSel was 1.95. In addition, the affinity on h-GABAA α1β2γ1 corresponds to a Ki of 8.4 nM.

`Clc1cccnc1C1=NCc2nnc(-c3ccncn3)n2-c2ccc(Br)c(Cl)c21` [Example 44, 8-bromo-7-chloro-6-(3-chloro-2-pyridyl)-1-pyrimidin-4-yl-4H-[1,2,4]triazolo[4,3-a][1,4]benzodiazepine] had an inhibition constant Ki on h-GABAA α1β3γ2 of 276 nM. Besides, on h-GABAA α1β3γ2 (Table 1), the “γ2/γ1 Selectivity Ratio” value worked out at 28.6 and the LogSel was determined as 1.46. Further, the affinity on h-GABAA α1β2γ1 corresponds to a Ki of 11.5 nM.

Turning to `Fc1cccnc1C1=NCc2nnc(-c3cccnn3)n2-c2ccc(Br)c(Cl)c21` [Example 45, 8-bromo-7-chloro-6-(3-fluoro-2-pyridyl)-1-pyridazin-3-yl-4H-[1,2,4]triazolo[4,3-a][1,4]benzodiazepine], the inhibition constant Ki on h-GABAA α1β3γ2 worked out at 1220 nM; on h-GABAA α1β2γ1, 54.4 nM. In addition, the “γ2/γ1 Selectivity Ratio” value on h-GABAA α1β3γ2 (Table 1) was determined as 77.7. The LogSel on h-GABAA α1β3γ2 (Table 1) turned out to be 1.89.

In turn, `Fc1cccnc1C1=NCc2nnc(-c3ccncn3)n2-c2ccc(Br)c(Cl)c21` [Example 46, 8-bromo-7-chloro-6-(3-fluoro-2-pyridyl)-1-pyrimidin-4-yl-4H-[1,2,4]triazolo[4,3-a][1,4]benzodiazepine] came in with a Ki on h-GABAA α1β3γ2 of 1160 nM. In addition, on h-GABAA α1β3γ2 (Table 1), the “γ2/γ1 Selectivity Ratio” value amounted to 45.8 and the LogSel came out at 1.66. For the same compound, the Ki on h-GABAA α1β2γ1 is 60.5 nM.

On to `Clc1cccnc1C1=NCc2nnc(-c3cccnn3)n2-c2ccc(Br)c(Cl)c21` [Example 47, 8-bromo-7-chloro-6-(3-chloro-2-pyridyl)-1-pyridazin-3-yl-4H-[1,2,4]triazolo[4,3-a][1,4]benzodiazepine], for which, at h-GABAA α1β3γ2, the Ki was found to be 222 nM. Also, at h-GABAA α1β3γ2 (Table 1), the “γ2/γ1 Selectivity Ratio” value was found to be 14.0 and the LogSel came out at 1.15. Further, the Ki on h-GABAA α1β2γ1 is 7 nM.

Source of the values: patent publication US20230141603A1, “BENZODIAZEPINE DERIVATIVES AS GABA A GAMMA1 PAM” (Hoffmann-La Roche Inc., priority 2021, published 2023).
